Patent US7323494B2, “Compounds and methods” (SmithKline Beecham Corporation, priority 2002, dated 2008)

Columns and labels:
[1] = target: T1, human LXRβ ligand binding domain (Homo sapiens, UniProt P55055); experiment: Ligand Sensing Assay (LiSA) for LXRβ agonist activity (SRC1 peptide recruitment); format: biochemical; conditions: 1 μM; over a background reading of 10000 fluorescence units
T1 construct: made in house; host or cells: E. coli BL21 (DE3), pRSETa
T1 sequence (P55055 184-460 limits assumed): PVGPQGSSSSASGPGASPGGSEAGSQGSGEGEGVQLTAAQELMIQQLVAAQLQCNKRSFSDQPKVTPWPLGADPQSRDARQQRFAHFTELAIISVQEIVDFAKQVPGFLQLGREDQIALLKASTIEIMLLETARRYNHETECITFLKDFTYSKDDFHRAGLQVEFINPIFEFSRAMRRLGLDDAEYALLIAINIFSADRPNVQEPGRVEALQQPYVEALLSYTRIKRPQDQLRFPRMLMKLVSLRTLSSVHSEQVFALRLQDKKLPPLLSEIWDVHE
T1 sequence (Q15788 676-700 partner limits assumed): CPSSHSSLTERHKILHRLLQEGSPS
Source text: Test Method 1: Ligand Sensing Assay (LiSA) for LXRβ Agonist Activity
This assay measures the recruitment of a peptide derived from the coactivator protein, SRC1, to the agonist-bound LXR[…]. Peptides derived from other nuclear receptor cofactors may be similarly prepared and assayed.
To generate the human LXRβ ligand binding domain suitable for LISA, a modified polyhistidine tag (MKKGHHHHHHG) (SEQ ID No. 1) was fused in frame to the human LXRβ ligand binding domain (amino acids 185-461 of Genbank accession number U07132) and subcloned into the expression vector pRSETa (Invitrogen) under the control of an IPTG inducible T7 promoter. The human LXRβ ligand binding domain was expressed in E. coli strain BL21 (DE3). Ten-liter fermentation batches were grown in Rich PO4 media with 0.1 mg/mL Ampicillin at 25° C. for 12 hours, cooled to […] and held at that temperature for 36 hours to a density of OD600=14. […]
Typically 25-50 g of cell paste is resuspended in 250-500 mL TBS, pH 8.0 (25 mM Tris, 150 mM NaCl). […] After washing to baseline absorbance with equilibration buffer, the column is washed with approximately one column volume of TBS pH-8.0 containing 95 mM imidazole. […] After washing to baseline absorbance with the dilution buffer the protein is eluted with a gradient from 50-500 mM NaCl. […]

[2] = target: T2, LXRα ligand binding domain (Homo sapiens, UniProt Q13133); experiment: Ligand Sensing Assay for LXRα agonist activity; format: biochemical; conditions: 1 μM; over a background reading of 10000 fluorescence units
T2 construct: His tag; made in house
T2 sequence (Q13133 183-447): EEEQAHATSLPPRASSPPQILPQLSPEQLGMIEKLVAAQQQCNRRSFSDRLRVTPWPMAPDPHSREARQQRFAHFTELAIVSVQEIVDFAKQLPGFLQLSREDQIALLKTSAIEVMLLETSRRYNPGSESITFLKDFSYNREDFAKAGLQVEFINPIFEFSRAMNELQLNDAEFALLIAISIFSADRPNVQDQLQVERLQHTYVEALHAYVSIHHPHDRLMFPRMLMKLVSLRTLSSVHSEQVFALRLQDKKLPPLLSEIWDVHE
T2 sequence (Q15788 676-700 partner): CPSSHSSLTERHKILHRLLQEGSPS
Description: Test Method 2: Ligand Sensing Assay for LXRα Agonist Activity
The assay for LXRα was run according to the procedures of Test Method 1, above using his-tagged LXRα ligand binding domain (amino acids 183-447 of Genbank accession number U22662, with the 14th amino acid corrected to A from R). In this assay 1 μM 24(S),25-epoxycholesterol gave a reading of 20000 fluorescence units over a background reading of 10000 fluorescence units.

Structure (SMILES): C[C@H](CC[C@@H]1OC1(C)C)[C@H]1CC[C@H]2[C@@H]3CC=C4C[C@@H](O)CC[C@]4(C)[C@H]3CC[C@]12C [24(S),25-epoxycholesterol]
- reading (fluorescence units) [1]: 20000 fluorescence units
- reading (fluorescence units) [2]: 20000 fluorescence units
